Results published in US20060211764A1, “Cell activator, process for producing cell activator and apparatus therefor” (priority 2002, published 2006).

Legend:
bacterial diarrhea = assay: Administration to milking bovines, bacterial diarrhea; format: in vivo, bovine
Excerpt: In the milking bovines, a bacterial diarrhea started to spread. Initially, four bovines infected by the bacterial diarrhea one after another. […] The bovines fed as usual even in the condition of diarrhea and no decrease in the amount of milk was observed.

baldness = assay: Spray and oral powder, baldness; format: in vivo, human; details: spray twice a day (10 g in terms of CPL powder) and 10 g/day orally for approximately 50 days
Excerpt: The said spraying agent was sprayed on a bald part of a head.

[1] = Administration to bovines antepartum; format: in vivo, bovine
Excerpt: From 3 to 5 days before expected date of delivery, 50 g/day of CPL administration was initiated.

uterine cervical cancer = format: in vivo, human; details: ingesting CPL
Excerpt: In the case of elderly people whose metabolic functions are weaker, ingesting a large amount of a drug often causes adverse reactions and invites risks. […] This patient was taking a strong painkiller when fighting against cancer, which could be replaced by a common painkiller after taking CPL.

uterine/ovarian cancer = assay: Administration to a human patient, uterine/ovarian cancer with ileus; format: in vivo
Procedure: Person, two years ago, the uterus was extirpated, the ovary and fallopian duct were resected and chemotherapy was performed 3 times. During hospitalization, an ileus tube was inserted due to an ileus. Then intestinal liquid and gas were emitted. A central nutrition tube was inserted into the right subclavian vein because oral ingestion was impossible. An artificial anus and urinary duct tube were attached due to a tumor in the left abdomen. […] Cancerous pain ameliorated and the ingestion of solid food from 3/10- 5/10- 7/10-whole porridge was enabled. Discharged from the hospital 3 months later.

[2] = test system: diabetes/rheumatism/hypertension; assay: Administration to a human patient, diabetes/rheumatism/hypertension; format: in vivo; details: person; 15 g/day for 30 days, then up to 20 g/day
[3] = Blood screening and biochemical examination of blood in bovines given CPL; format: in vivo, bovine
gastric cancer = assay: Administration to human patients, gastric cancer; format: in vivo
Excerpt: Patient, gastric cancer had metastasized in the liver; countless cancer cells metastasized and dispersed in the liver.
Gastric cancer was detected as a result of a detailed examination, extirpated soon after the discovery, cancer as large as a head of a fetus was removed. Scattered additionally in the peritoneal cavity: Life expectancy was 3-6 months.
person, metastasized in the pancreas and peritoneum.

bladder cancer = assay: Administration to human patients, bladder cancer; format: in vivo
constipation = assay: Bowel movement and constipation during ingestion; format: in vivo, human; details: CPL ingestion; laxative discontinued
liver cancer = assay: Administration to human patients, liver cancer; format: in vivo; details: male
ketosis = assay: Administration to bovines, ketosis (obese syndrome); format: in vivo, bovine; details: 100 g/day mesothiol 10 days before delivery, then 100g/day of CPL in combination for 7 days after delivery
Procedure: For 10 days before the expected date of delivery, 100 g/day of mesothiol was administered in bovines with ketosis.

ovarian cyst = assay: Administration to human patients, ovarian cyst (ultrasonography, MRI); format: in vivo
Excerpt: A case of a patient whose uterus was extirpated due to uterine myoma. This patient has had two celitomies with a caesarean section. They received an examination for cancer because abnormal bleeding has continued recently. […] Moreover, a prominent part was found in part of the cyst and it was suspected to be malign (Photograph (1)).
The size of the ovarian cyst measured with ultrasonography carried out a few days later was reduced down to approximately 4 cm (Photograph (2)).
A case of a patient whose wedding day was drawing close. […] In consideration that hormone abnormalities were the cause, follow-ups were made for 2-3 weeks. Carrying out a subsequent examination, the ovary was further swollen to 6.5 cm (Photograph 5).

diarrhea = assay: Administration to calves, diarrhea; format: in vivo, bovine
Excerpt: Diarrhea frequently occurred in calves when changing to the milk substitute, which is thought to inhibit normal development of the calves. Then farmers may suffer a serious loss.

cervical malign lymphoma = assay: Administration to a human patient, cervical malign lymphoma; format: in vivo; details: person; 20 g/day for 360 days
[4] = Examinations after ingestion by healthy subjects and long-term patients; format: in vivo, human
cancer = assay: Several hundreds of patients suffering from cancer taking CPL; format: in vivo, human; details: 10-20 g/day
[5] = test system: pulmonary cancer metastasis lymphoma; assay: Administration to a human patient, pulmonary cancer metastasis lymphoma; format: in vivo; details: person; 15 g/day for 180 days
endometriosis = assay: Administration to human patients, endometriosis; format: in vivo

With Cyclic Poly-lactate [CPL] the “response of bacterial diarrhea” value (bacterial diarrhea; 50 g/day, 100 g/day of Neothor in combination in severe cases, in most bovines) was “complete response”, the amount of milk (bacterial diarrhea; bovines with bacterial diarrhea given 50 g/day) was “no decrease” and the “hair growth on bald part of head” value (baldness) was “hair growth is achieved”. The mastitis prevention ([1]; 50 g/day from 3 to 5 days before expected date of delivery) was “confirmed to play a role in mastitis prevention”, the delivery of calves ([1]; 50 g/day initiated 5 days before expected date of delivery) was “smoothly” and the “pain of patients suffering from advanced cancer” value (uterine cervical cancer) was “diminishes the pain rapidly”. The “excretion of gas, defecation and amount of urine” value (uterine/ovarian cancer; person with ileus, 4-6 g/day) was “increased”, the ileus symptoms (uterine/ovarian cancer; person, 7 days later) was “negative” and the “recurrence of ileus symptoms” value (uterine/ovarian cancer; person, discharged 3 months later) was “No recurrent ileus symptoms”. For the same substance, the cancerous pain (uterine/ovarian cancer; person, oral ingestion 15-20 g/day) was “ameliorated”, the need for dialysis [2] was “dialysis was not necessary” and the WBC ([3]; bovine 901 (Screening), 3 May, treatment from 30 April, pretreatment 97) was 96 ×10^2. It also gave a GOT ([3]; bovine 901 (Screening), 3 May, treatment from 30 April, pretreatment 134) of 128 U/I, a TCHO ([3]; bovine 901 (Screening), 3 May, treatment from 30 April, pretreatment 255) of 266 mg/dL and a CPK ([3]; bovine 901 (Screening), 3 May, treatment from 30 April, pretreatment 819) of 82 U/I. The WBC ([3]; bovine 901 (Screening), 7 May, pretreatment 97) was 94 ×10^2, the GOT ([3]; bovine 901 (Screening), 7 May, pretreatment 134) was 116 U/I and the TCHO ([3]; bovine 901 (Screening), 7 May, pretreatment 255) was 245 mg/dL. For the same substance, the CPK ([3]; bovine 901 (Screening), 7 May, pretreatment 819) was 97 U/I, the WBC ([3]; bovine 901 (Screening), 10 May, completion date of treatment, pretreatment 97) was 71 ×10^2 and the GOT ([3]; bovine 901 (Screening), 10 May, completion date of treatment, pretreatment 134) was 115 U/I. For the same substance, the TCHO ([3]; bovine 901 (Screening), 10 May, completion date of treatment, pretreatment 255) was 286 mg/dL, the CPK ([3]; bovine 901 (Screening), 10 May, completion date of treatment, pretreatment 819) was 113 U/I and the WBC ([3]; bovine 923 (Garget), 3 May, treatment from 30 April, Spectrazol 2-4 May, pretreatment 101) was 111 ×10^2. It also gave a GOT ([3]; bovine 923 (Garget), 3 May, treatment from 30 April, Spectrazol 2-4 May, pretreatment 123) of 107 U/I, a TCHO ([3]; bovine 923 (Garget), 3 May, treatment from 30 April, Spectrazol 2-4 May, pretreatment 247) of 255 mg/dL and a CPK ([3]; bovine 923 (Garget), 3 May, treatment from 30 April, Spectrazol 2-4 May, pretreatment 563) of 203 U/I. The WBC ([3]; bovine 923 (Garget), 7 May, pretreatment 101) was 97 ×10^2, the GOT ([3]; bovine 923 (Garget), 7 May, pretreatment 123) was 81 U/I and the TCHO ([3]; bovine 923 (Garget), 7 May, pretreatment 247) was 208 mg/dL. The CPK ([3]; bovine 923 (Garget), 7 May, pretreatment 563) was 133 U/I, the WBC ([3]; bovine 923 (Garget), 10 May, completion date of treatment, pretreatment 101) was 110 ×10^2 and the GOT ([3]; bovine 923 (Garget), 10 May, completion date of treatment, pretreatment 123) was 107 U/I. The TCHO ([3]; bovine 923 (Garget), 10 May, completion date of treatment, pretreatment 247) was 259 mg/dL, the CPK ([3]; bovine 923 (Garget), 10 May, completion date of treatment, pretreatment 563) was 121 U/I and the “other blood responses such as WBC, GOT, and TCHO” value ([3]; bovines given CPL) was “no specific changes”. The “CPK (muscle enzyme) mean level” value ([3]; group of bovines with markedly high levels of CPK) was “extremely low”, the “cancer blocks metastasized in the liver” value (gastric cancer; male, gastric cancer metastasized in the liver, CPL for 2 weeks) was “necrotized” and the “course of terminal inoperable gastric cancer” value (gastric cancer; person, metastasized in pancreas and peritoneum, 30 g/day for 150 days) was “progressing satisfactorily”. The “recurrence after extirpation of gastric cancer” value (gastric cancer; scattered in peritoneal cavity, life expectancy 3-6 months, 10 g/day for 5 months) was “no sign of a recurrence”, the “examination findings and recurrence of bladder cancer” value (bladder cancer; male, resection performed 5 times, 20-30 g/day for 50 days) was “no abnormal findings from examinations, nor a recurrence” and the “course of bladder cancer” value (bladder cancer; person, 40-50 g/day for 270 days) was “improved from the terminal stage”. For the same substance, the “defecation of patients suffering from constipation” value (constipation) was “improved defecation”, the “outcome of liver cancer” value (liver cancer; 20 g/day for 150 days) was “cured” and the “outcome of liver cancer originated from liver cirrhosis” value (liver cancer; 20 g/day for 210 days) was “cured”. The “level of γGTP” value (ketosis; 100 in onset) was 35, the “level of GOT” value (ketosis; 549 in onset) was 83 and the “ovarian cyst at preoperative MRI examination” value (ovarian cyst; patient, 30-40 g/day until operation) was “disappeared”. The “size of ovarian cyst by ultrasonography” value (ovarian cyst; patient, 30-40 g/day, a few days later, initially approximately 5 cm) was “approximately 4 cm”, the “ovarian cyst after further administration” value (ovarian cyst; person, 2 weeks after further administration) was “disappeared completely” and the “size of ovarian cyst by ultrasonography” value (ovarian cyst; person, CPL for 2 weeks, 6.5 cm before) was “below 4 cm”. For the same substance, the “outcome of diarrhea in calves changing to milk substitute” value (diarrhea; 20-30 g/day) was “recovered completely”, the “diarrhea in calves that took CPL (prevention)” value (diarrhea; 20 g/day for the first 4-5 days) was “spontaneously cured” and the “time to complete recovery after CPL administration” value (diarrhea; calves, 20-30 g/day) was “approximately 3 days”. The “outcome of cervical malign lymphoma” value (cervical malign lymphoma) was “cured”, the “effect on results of examinations (physical findings, hematological/biochemical tests, urine and faeces)” value ([4]; healthy subjects, 6 g/day) was “not to affect” and the “effect on biogenic basic functions (appetite, sleep, changes in weight, libido)” value ([4]; human, in vivo) was “no effect”. The “abnormal findings from examinations” value ([4]; patients who have taken 6 g/day for 3-5 years) was “no abnormal findings at all”, the “findings of ameliorated adverse reactions, macrobiotic effects and suggestion of a cure” value (cancer) was “observed in the majority” and the “course of pulmonary cancer metastasis lymphoma” value [5] was “satisfactory progress”. For the same substance, the “CA125 of tumor marker” value (endometriosis; endometriosis patients, in the majority of the patients) was “improves”, the symptoms of menorrhagia (endometriosis; person, 10 g/day orally) was “ameliorated” and the menstrual pain (endometriosis; person, 10 g/day orally, next menstruation) was “ameliorated”.
